Marks after values point to notes of the source that are not given here.

We go through 54 compounds from patent US9440989B2, “Antifibrinolytic compounds” (PROYECTO DE BIOMEDICINA CIMA, S.L., priority 2012, dated 2016).

For one test, the system named is tPA-prolonged tail bleeding in wild type mice (C57/Bl6). Description: Tail bleeding assay, hyperfibrinolytic bleeding model (tPA 0.5 mg/kg). The class given is in vivo. The settings on record: 10 mg/Kg infused via femoral vein, n≧10. How it is done: Bleeding time was evaluated in 2 months old wild-type C57B16 (n=10) mice by removing the tail tip. Mice (20-25 g) were anaesthetized with 2.5% isoflurane and maintained at 37° C. on heating pads. The hemostatic efficacy was evaluated in 2 models, traditional bleeding model and hyperfibrinolytic bleeding model.
Hyperfibrinolytic bleeding model, consisted in injection of 0.5 mg/kg tPA into the ocular plexus to prolong bleeding time due to excessive fibrinolysis. […] The catheter was connected to a syringe pump (AL-1000, WPI) for the infusion of 200 μL (10% bolus, 90% perfusion during 40 minutes) of tested agents. Then, tPA (0.5 mg/kg) was injected into the ocular plexus and five minutes after tPA administration, saline or the different compounds was infused through the femoral catheter to ensure systemic distribution of all the agents. Reference compounds, TXA and Aprotinin, were administered at 300 and 10 mg/Kg respectively; however, all compounds of the invention were administered at 1 mg/Kg. Five minutes later, 5 mm of tail tip were removed using a scalpel blade and the tail tip bathed in 1 mL of sterile saline at 37° C.
The time of bleeding was defined as the interval between initial transections and the visual cessation of bleeding, that was measured up to 30 minutes. A value of 30 min was assigned to those animals bleeding longer than the observation period. […] Bleeding time was determined in wild type mice (C57/Bl6), where n≧10 per assayed compound; therefore, BT is reported as a mean value—in the case of saline, BT is reported as mean±ESM.
Consider Aprotinin [reference compound], for which the “BT (bleeding time, mean)” value was “++** (10 minutes≦BT<20 minutes (++))”.

The next test has as its system human blood (whole blood clot lysis, tPA). Kind of test: Thromboelastometry (ROTEM, modified in-tem with tPA): whole blood clot formation and lysis, human blood. The settings on record: Homo sapiens, read-out: EC50LT (effective concentration to delay lysis time by 50%).
Procedure: A modification of in-tem test as described below was used for the examination of antifibrinolytic effects of tested compounds and its interaction with platelets in citrated blood.
In a pre-warmed cuvette and holder 1 μL of Tissue plasminogen activator (tPA) (150,000 U/mL, Actylise), 20 μL of start-tem reagent (CaCl2), 20 μL of in-tem reagent (activators of coagulation system), 3 μL of DMSO (control) or tested compounds (CMs) in DMSO and 300 μL of citrated blood pre-warmed were pipetted. The cup holder containing the sample mixture was placed immediately on the appropriate channel. The measurement was recorded for 60 min to allow clot formation and lysis.
For the compound `O=C(NO)C1(S(=O)(=O)c2ccc(O)cc2)CCC2(CCNCC2)C1` (stereo not drawn) [Example 1-60, N-hydroxy-3-(4-hydroxyphenylsulfonyl)-8-azaspiro[4.5]decane-3-carboxamide], the EC50 is more than 25000 nM.

`Nc1ccc(S(=O)(=O)C2(C(=O)NO)CCC3(CCNCC3)C2)cc1` (stereo not drawn) [Example 1-61]: the EC50 is more than 25000 nM.

On to `NC(=O)c1ccc(Oc2ccc(S(=O)(=O)C3(C(=O)NO)CCC4(CCNCC4)C3)cc2)cc1` (stereo not drawn) [Example 1-64], for which the EC50 is more than 25000 nM.

Regarding `CC(C)NC(=O)c1ccc(Oc2ccc(S(=O)(=O)C3(C(=O)NO)CCC4(CCNCC4)C3)cc2)cc1` (stereo not drawn) [Example 1-65], the EC50 is 1000 to 10000 nM.

Regarding `O=C(NO)C1(S(=O)(=O)c2ccc(Cc3ccccc3)cc2)CCC2(CCNCC2)C1` (stereo not drawn) [Example 1-66], the EC50 is more than 25000 nM.

In the case of `O=C(NO)C1(S(=O)(=O)c2ccc(NCc3ccccc3)cc2)CCC2(CCNCC2)C1` (stereo not drawn) [Example 1-67], the EC50 is less than 1000 nM.

As for `COC1CCC(Oc2ccc(S(=O)(=O)C3(C(=O)NO)CCC4(CCNCC4)C3)cc2)CC1` (stereo not drawn) [Example 1-70], the EC50 was less than 1000 nM.

Take `CC(C)Oc1ccc(Oc2ccc(S(=O)(=O)C3(C(=O)NO)CCC4(CCNCC4)C3)cc2)cc1` (stereo not drawn) [Example 1-72]: the EC50 lay in the range of 1000 to 10000 nM.

`COC(=O)c1cccc(Oc2ccc(S(=O)(=O)C3(C(=O)NO)CCC4(CCNCC4)C3)cc2)c1` (stereo not drawn) [Example 1-74]: the EC50 lay within 1000 to 10000 nM.

For the compound `O=C(O)c1cccc(Oc2ccc(S(=O)(=O)C3(C(=O)NO)CCC4(CCNCC4)C3)cc2)c1` (stereo not drawn) [Example 1-75], the EC50 lay within 1000 to 10000 nM.

With `O=C(NO)C1(S(=O)(=O)c2ccc(Oc3ccc(Cl)cc3)cc2)CCC2(CCNCC2)C1` (stereo not drawn) [Example 1-76], the EC50 was more than 25000 nM.

Consider `COC1CCC(Nc2ccc(S(=O)(=O)C3(C(=O)NO)CCC4(CCNCC4)C3)cc2)CC1` (stereo not drawn) [Example 1-77], for which the EC50 is 1000 to 10000 nM.

Consider `O=C(NO)C1(S(=O)(=O)c2cccc(NC3CCCCC3)c2)CCC2(CCNCC2)C1` (stereo not drawn) [Example 1-78], for which the EC50 is more than 25000 nM.

Turning to `O=C(Nc1ccc(S(=O)(=O)C2(C(=O)NO)CCC3(CCNCC3)C2)cc1)C1CCCCC1` (stereo not drawn) [Example 1-81, N-hydroxy-3-(4-(cyclohexanecarbonylamino)Phenylsulfonyl)-8-azaspiro[4.5]decane-3-carboxamide], the EC50 was less than 1000 nM.

For `CNC(=O)C1CCC(Nc2ccc(S(=O)(=O)C3(C(=O)NO)CCC4(CCNCC4)C3)cc2)CC1` (stereo not drawn) [Example 1-83], the EC50 is more than 25000 nM.

With `O=C(O)C1CCC(Nc2ccc(S(=O)(=O)C3(C(=O)NO)CCC4(CCNCC4)C3)cc2)CC1` (stereo not drawn) [Example 1-84], the EC50 is less than 1000 nM.

Turning to `O=C(O)c1ccc(C(=O)Oc2ccc(S(=O)(=O)C3(C(=O)NO)CCC4(CCNCC4)C3)cc2)cc1` (stereo not drawn) [Example 1-86], the EC50 is less than 1000 nM.

Consider `O=C(O)c1ccc(Oc2ccc(S(=O)(=O)C3(C(=O)NO)CCC4(CCNCC4)C3)cc2)cc1F` (stereo not drawn) [Example 1-88], for which the EC50 was less than 1000 nM.

Take `CNC(=O)c1ccc(Oc2ccc(S(=O)(=O)C3(C(=O)NO)CCC4(CCNCC4)C3)cc2)cc1F` (stereo not drawn) [Example 1-89]: the EC50 was more than 25000 nM.

Regarding `COc1cc(S(=O)(=O)C2(C(=O)NO)CCC3(CCNCC3)C2)ccc1NC1CCCCC1` (stereo not drawn) [Example 1-90, N-hydroxy-3-(3-methoxy-4-(cyclohexylamino)Phenylsulfonyl)-8-azaspiro[4.5]decane-3-carboxamide], the EC50 was more than 25000 nM.

Take `O=C(NO)C1(S(=O)(=O)c2ccc(OCC3CCCCC3)cc2)CCC2(CCNCC2)C1` (stereo not drawn) [Example 1-92]: the EC50 was 1000 to 10000 nM.

In the case of `CNC(=O)c1ccc(Oc2ccc(S(=O)(=O)C3(C(=O)NO)CCC4(CCNCC4)C3)cc2)c(F)c1` (stereo not drawn) [Example 1-93], the EC50 was more than 25000 nM.

Turning to `COC(=O)c1ccc(Oc2ccc(S(=O)(=O)C3(C(=O)NO)CCC4(CCNCC4)C3)cc2)c(F)c1` (stereo not drawn) [Example 1-94], the EC50 was more than 25000 nM.

`O=C(O)c1ccc(Oc2ccc(S(=O)(=O)C3(C(=O)NO)CCC4(CCNCC4)C3)cc2)c(F)c1` (stereo not drawn) [Example 1-95]: the EC50 is more than 25000 nM.

Regarding `O=C(NO)C1(S(=O)(=O)c2ccc(NC3CCCC3)cc2)CCC2(CCNCC2)C1` (stereo not drawn) [Example 1-97], the EC50 fell in the range of 1000 to 10000 nM.

`O=C(Oc1ccc(S(=O)(=O)C2(C(=O)NO)CCC3(CCNCC3)C2)cc1)C1CCCCC1` (stereo not drawn) [Example 1-98]: the EC50 is more than 25000 nM.

For the compound `O=C(NO)C1(S(=O)(=O)c2ccc(OCc3ccncc3)cc2)CCC2(CCNCC2)C1` (stereo not drawn) [Example 1-100], the EC50 was less than 1000 nM.

Turning to `CNC(=O)c1ccc(C(=O)Oc2ccc(S(=O)(=O)C3(C(=O)NO)CCC4(CCNCC4)C3)cc2)cc1F` (stereo not drawn) [Example 1-101], the EC50 lay within 1000 to 10000 nM.

Take `CNC(=O)c1ccc(CNc2ccc(S(=O)(=O)C3(C(=O)NO)CCC4(CCNCC4)C3)cc2)cc1` (stereo not drawn) [Example 1-104]: the EC50 was less than 1000 nM.

Consider `COC(=O)c1ccc(CNc2ccc(S(=O)(=O)C3(C(=O)NO)CCC4(CCNCC4)C3)cc2)cc1` (stereo not drawn) [Example 1-105], for which the EC50 is more than 25000 nM.

Regarding `O=C(O)c1ccc(CNc2ccc(S(=O)(=O)C3(C(=O)NO)CCC4(CCNCC4)C3)cc2)cc1` (stereo not drawn) [Example 1-106], the EC50 was less than 1000 nM.

Take `O=C(NO)C1(S(=O)(=O)c2ccc(Oc3ccc(OC(F)(F)F)c(Cl)c3)cc2)CCC2(CCNCC2)C1` (stereo not drawn) [Example 1-114]: the EC50 lay in the range of 10000 to 25000 nM.

Regarding `O=C(NO)C1(S(=O)(=O)c2ccc(Oc3cccc(OC(F)(F)F)c3)cc2)CCC2(CCNCC2)C1` (stereo not drawn) [Example 1-115], the EC50 was less than 1000 nM.

With `O=C(NO)C1(S(=O)(=O)c2ccc(F)c(Cl)c2)CCC2(CCNCC2)C1` (stereo not drawn) [Example 1-116, N-hydroxy-3-(3-chloro-4-fluorophenylsulfonyl)-8-azaspiro[4.5]decane-3-carboxamide], the EC50 was less than 1000 nM.

Regarding `O=C(NO)C1(S(=O)(=O)c2ccc(Oc3ccc(OC(F)(F)F)c(F)c3)cc2)CCC2(CCNCC2)C1` (stereo not drawn) [Example 1-118], the EC50 was less than 1000 nM.

In the case of `COc1ccc(C(=O)Oc2cccc(S(=O)(=O)C3(C(=O)NO)CCC4(CCNCC4)C3)c2)cc1` (stereo not drawn) [Example 1-119], the EC50 is less than 1000 nM.

With `O=C(Oc1cccc(S(=O)(=O)C2(C(=O)NO)CCC3(CCNCC3)C2)c1)c1ccc(OC(F)(F)F)cc1` (stereo not drawn) [Example 1-120], the EC50 is more than 25000 nM.

Turning to `O=C(NO)C1(S(=O)(=O)c2ccc(O)c(Cl)c2)CCC2(CCNCC2)C1` (stereo not drawn) [Example 1-121], the EC50 was in the range of 1000 to 10000 nM.

Take `O=C(NO)C1(S(=O)(=O)c2ccc(OCc3ccccc3)c(Cl)c2)CCC2(CCNCC2)C1` (stereo not drawn) [Example 1-122]: the EC50 was more than 25000 nM.

For the compound `O=C(NO)C1(S(=O)(=O)c2cccc(Oc3ccc(OC(F)(F)F)cc3)c2)CCC2(CCNCC2)C1` (stereo not drawn) [Example 1-123], the EC50 was less than 1000 nM.

Take `O=C(NO)C1(S(=O)(=O)c2ccc(Oc3ccc(OC(F)(F)F)cc3)cc2)CCC2(CCN(C3CC3)CC2)C1` (stereo not drawn) [Example 1-124]: the EC50 lay within 1000 to 10000 nM.

For `O=C(NO)C1(S(=O)(=O)c2ccc(NCC3CCC(F)(F)CC3)cc2)CCC2(CCNCC2)C1` (stereo not drawn) [Example 1-125], the EC50 was less than 1000 nM.

As for `CNC(=O)c1ccc(Oc2cccc(S(=O)(=O)C3(C(=O)NO)CCC4(CCNCC4)C3)c2)cc1` (stereo not drawn) [Example 1-126], the EC50 is more than 25000 nM.

As for `O=C(O)c1ccc(Oc2cccc(S(=O)(=O)C3(C(=O)NO)CCC4(CCNCC4)C3)c2)cc1` (stereo not drawn) [Example 1-127], the EC50 is less than 1000 nM.

Consider `O=C(Oc1ccc(S(=O)(=O)C2(C(=O)NO)CCC3(CCNCC3)C2)cc1Cl)c1ccc(OC(F)(F)F)cc1` (stereo not drawn) [Example 1-128, N-hydroxy-3-(3-chloro-4-(4-(trifluoromethoxy)Benzoyloxy)Phenylsulfonyl)-8-azaspiro[4.5]decane-3-carboxamide], for which the EC50 was more than 25000 nM.

Consider `COc1ccc(C(=O)Oc2ccc(S(=O)(=O)C3(C(=O)NO)CCC4(CCNCC4)C3)cc2Cl)cc1` (stereo not drawn) [Example 1-129], for which the EC50 lay within 1000 to 10000 nM.

Turning to `O=C(NO)C1(S(=O)(=O)c2cccc(OCc3ccc(OC(F)(F)F)cc3)c2)CCC2(CCNCC2)C1` (stereo not drawn) [Example 1-130], the EC50 lay within 1000 to 10000 nM.

As for `COc1ccc(S(=O)(=O)[C@]2(C(=O)NO)CCC3(CCNCC3)C2)cc1Cl` [Example 1-131], the EC50 is less than 1000 nM.

As for `COc1ccc(S(=O)(=O)[C@@]2(C(=O)NO)CCC3(CCNCC3)C2)cc1Cl` [Example 1-132], the EC50 was less than 1000 nM.

The same test, now with this note: read-out: EC50LT (effective concentration to delay lysis time by 50%); human blood, tPA, assayed concentrations 1000-0.2 μM.
`CN(C)C(=O)c1ccc(Oc2ccc(S(=O)(=O)C3(C(=O)NO)CCC4(CCNCC4)C3)cc2)cc1` (stereo not drawn) [Example 1-63]: the EC50 was 1000 to 10000 nM.

`CNC(=O)c1ccc(Oc2ccc(S(=O)(=O)C3(C(=O)NO)CCC4(CCNCC4)C3)cc2)cc1` (stereo not drawn) [Example 1-133]: the EC50 was less than 1000 nM.

`CNC(=O)c1ccc(Oc2ccc(S(=O)(=O)C3(C(=O)NO)CCC4(CCNCC4)C3)cc2)cc1` (stereo not drawn) [Example 1-134]: the EC50 was less than 1000 nM.

`O=C(NO)C1(S(=O)(=O)c2ccccc2NC2CCCCC2)CCC2(CCNCC2)C1` (stereo not drawn) [Example 1-138]: the EC50 is less than 1000 nM.
